Laboratory results taken from patent EP4678638A1, “NEW E3 UBIQUITIN LIGASE LIGAND, PROTEIN DEGRADATION AGENT AND USE THEREOF” (priority 2023, dated 2024).
Where two headings read alike, the source gives them in different places.

What was measured:
Assay type in all cases: cell-based
IKZF1 = molecular target: T1, IKZF1 (Homo sapiens, UniProt Q13422+Q96SW2); experiment: Western blot degradation of IKZF1 (hPBMC); settings: Table D16
T1 construct: evaluate the effects of the compounds of the present disclosure on the expression of target proteins in cells; endogenous in cells; host or cells: hPBMC
T1 sequence (Q13422 whole entry): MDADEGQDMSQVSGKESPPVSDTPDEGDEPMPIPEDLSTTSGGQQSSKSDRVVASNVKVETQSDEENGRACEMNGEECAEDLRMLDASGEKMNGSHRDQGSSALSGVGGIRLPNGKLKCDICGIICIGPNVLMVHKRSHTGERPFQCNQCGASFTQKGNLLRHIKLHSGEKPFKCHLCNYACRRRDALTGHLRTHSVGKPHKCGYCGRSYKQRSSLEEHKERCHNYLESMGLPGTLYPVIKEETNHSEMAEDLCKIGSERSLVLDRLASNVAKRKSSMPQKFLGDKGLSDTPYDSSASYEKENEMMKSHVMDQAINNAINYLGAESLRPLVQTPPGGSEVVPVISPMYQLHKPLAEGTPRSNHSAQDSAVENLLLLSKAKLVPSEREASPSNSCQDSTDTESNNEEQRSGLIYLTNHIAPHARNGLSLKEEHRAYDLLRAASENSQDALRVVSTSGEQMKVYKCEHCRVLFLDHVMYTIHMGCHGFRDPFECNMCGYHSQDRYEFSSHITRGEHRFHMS
T1 sequence (Q96SW2 whole entry): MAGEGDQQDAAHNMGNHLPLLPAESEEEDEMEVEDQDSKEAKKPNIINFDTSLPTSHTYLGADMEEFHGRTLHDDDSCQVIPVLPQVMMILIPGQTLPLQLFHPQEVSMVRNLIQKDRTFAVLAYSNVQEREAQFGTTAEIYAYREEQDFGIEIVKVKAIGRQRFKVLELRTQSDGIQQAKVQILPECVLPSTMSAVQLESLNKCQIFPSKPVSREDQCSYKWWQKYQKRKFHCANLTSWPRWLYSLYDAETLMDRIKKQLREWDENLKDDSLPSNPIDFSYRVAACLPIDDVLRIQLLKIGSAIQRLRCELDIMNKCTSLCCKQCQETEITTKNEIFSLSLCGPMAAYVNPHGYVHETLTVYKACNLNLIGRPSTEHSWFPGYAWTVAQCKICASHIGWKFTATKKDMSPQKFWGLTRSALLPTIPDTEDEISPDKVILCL
T1 sequence (Q16531 whole entry partner): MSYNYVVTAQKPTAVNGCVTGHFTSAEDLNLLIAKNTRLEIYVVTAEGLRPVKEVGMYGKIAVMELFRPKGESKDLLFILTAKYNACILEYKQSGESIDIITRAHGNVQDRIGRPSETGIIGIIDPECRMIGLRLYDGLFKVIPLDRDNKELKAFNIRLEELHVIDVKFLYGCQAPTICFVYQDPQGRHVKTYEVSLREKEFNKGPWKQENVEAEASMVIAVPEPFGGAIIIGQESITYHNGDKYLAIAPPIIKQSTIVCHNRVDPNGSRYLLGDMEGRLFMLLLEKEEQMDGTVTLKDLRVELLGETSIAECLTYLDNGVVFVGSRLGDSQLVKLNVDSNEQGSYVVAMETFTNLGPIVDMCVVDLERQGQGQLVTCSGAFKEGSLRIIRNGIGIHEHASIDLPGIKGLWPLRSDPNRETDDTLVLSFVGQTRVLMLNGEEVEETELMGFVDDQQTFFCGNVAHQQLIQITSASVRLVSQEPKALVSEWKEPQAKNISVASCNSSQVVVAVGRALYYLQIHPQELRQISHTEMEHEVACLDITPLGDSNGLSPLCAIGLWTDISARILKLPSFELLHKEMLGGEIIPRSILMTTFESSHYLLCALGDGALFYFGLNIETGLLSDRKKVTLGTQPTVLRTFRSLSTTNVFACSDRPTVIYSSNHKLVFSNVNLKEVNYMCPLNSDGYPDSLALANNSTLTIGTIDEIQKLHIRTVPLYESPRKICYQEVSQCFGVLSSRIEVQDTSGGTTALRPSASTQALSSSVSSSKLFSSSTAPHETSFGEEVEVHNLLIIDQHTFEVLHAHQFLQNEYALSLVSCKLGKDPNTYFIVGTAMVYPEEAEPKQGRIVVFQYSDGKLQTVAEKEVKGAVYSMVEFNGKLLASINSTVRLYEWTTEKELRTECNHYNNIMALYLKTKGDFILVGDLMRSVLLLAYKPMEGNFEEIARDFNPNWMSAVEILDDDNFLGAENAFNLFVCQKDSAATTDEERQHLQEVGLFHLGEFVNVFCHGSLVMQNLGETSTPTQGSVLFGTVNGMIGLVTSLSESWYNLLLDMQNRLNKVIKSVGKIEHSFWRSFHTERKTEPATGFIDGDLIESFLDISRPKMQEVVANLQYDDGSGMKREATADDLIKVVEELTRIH
How it was run: (§1)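 Quantification by ImageJ densitometry of Western blot bands: DC50 is the fitted concentration halving band intensity relative to DMSO. Percent remaining uses internal-control normalization, and degradation rate is its complement.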

CK1a = molecular target: T2, CK1a (Homo sapiens, UniProt P48729+Q96SW2); experiment: Western blot degradation of CK1a (hPBMC); settings: Table D16
T2 construct: evaluate the effects of the compounds of the present disclosure on the expression of target proteins in cells; endogenous in cells; host or cells: hPBMC
T2 sequence (P48729 whole entry): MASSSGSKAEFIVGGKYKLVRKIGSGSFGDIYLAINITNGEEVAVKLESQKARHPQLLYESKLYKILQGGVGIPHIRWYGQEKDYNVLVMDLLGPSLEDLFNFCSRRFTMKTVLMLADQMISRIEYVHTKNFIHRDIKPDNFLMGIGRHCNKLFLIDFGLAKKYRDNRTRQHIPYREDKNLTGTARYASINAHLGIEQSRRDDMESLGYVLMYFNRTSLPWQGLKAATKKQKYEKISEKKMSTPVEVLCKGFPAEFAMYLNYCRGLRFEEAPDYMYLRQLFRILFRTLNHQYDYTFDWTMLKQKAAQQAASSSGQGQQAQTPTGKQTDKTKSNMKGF
T2 sequence (Q96SW2 whole entry): as the sequence (Q96SW2 whole entry) above
T2 sequence (Q16531 whole entry partner): as the sequence (Q16531 whole entry partner) above
How it was run: as §1

MM.1S = experiment: CCK-8 proliferation, MM.1S; settings: Homo sapiens, MM1.S; CCK-8; 72 hours; read-out: Inhibitory activity (IC50) on tumor cell proliferation, MM1S
How it was run: (§2)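 Cells seeded, then after 24 h treated with 10 concentrations (top 10 µM, 5-fold serial dilution) for a line-specific time at 37°C, 5% CO2. Viability read by CCK-8; IC50 fitted from growth-inhibition curves.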

IKZF3 = molecular target: T3, IKZF3 (Homo sapiens, UniProt Q96SW2+Q9UKT9); experiment: Western blot degradation of IKZF3 (hPBMC); settings: Table D16
T3 construct: evaluate the effects of the compounds of the present disclosure on the expression of target proteins in cells; endogenous in cells; host or cells: hPBMC
T3 sequence (Q9UKT9 whole entry): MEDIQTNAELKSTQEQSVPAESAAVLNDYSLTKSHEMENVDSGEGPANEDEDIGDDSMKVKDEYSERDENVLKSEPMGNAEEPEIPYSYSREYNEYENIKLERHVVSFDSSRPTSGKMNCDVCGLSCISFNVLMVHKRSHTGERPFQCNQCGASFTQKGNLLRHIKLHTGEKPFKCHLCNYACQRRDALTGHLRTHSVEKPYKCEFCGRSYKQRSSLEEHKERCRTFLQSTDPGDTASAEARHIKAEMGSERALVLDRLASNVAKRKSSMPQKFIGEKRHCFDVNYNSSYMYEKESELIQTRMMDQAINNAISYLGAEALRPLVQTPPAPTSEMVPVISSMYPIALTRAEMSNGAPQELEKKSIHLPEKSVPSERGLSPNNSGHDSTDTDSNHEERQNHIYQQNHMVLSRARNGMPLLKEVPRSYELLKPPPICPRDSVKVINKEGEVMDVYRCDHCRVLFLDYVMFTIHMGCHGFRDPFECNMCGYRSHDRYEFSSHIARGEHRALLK
T3 sequence (Q96SW2 whole entry): as the sequence (Q96SW2 whole entry) above
T3 sequence (Q16531 whole entry partner): as the sequence (Q16531 whole entry partner) above
How it was run: as §1

IKZF2 = molecular target: T4, IKZF2 (Homo sapiens, UniProt Q96SW2+Q9UKS7); experiment: Western blot degradation of IKZF2 (hPBMC); settings: Table D16
T4 construct: evaluate the effects of the compounds of the present disclosure on the expression of target proteins in cells; endogenous in cells; host or cells: hPBMC
T4 sequence (Q9UKS7 whole entry): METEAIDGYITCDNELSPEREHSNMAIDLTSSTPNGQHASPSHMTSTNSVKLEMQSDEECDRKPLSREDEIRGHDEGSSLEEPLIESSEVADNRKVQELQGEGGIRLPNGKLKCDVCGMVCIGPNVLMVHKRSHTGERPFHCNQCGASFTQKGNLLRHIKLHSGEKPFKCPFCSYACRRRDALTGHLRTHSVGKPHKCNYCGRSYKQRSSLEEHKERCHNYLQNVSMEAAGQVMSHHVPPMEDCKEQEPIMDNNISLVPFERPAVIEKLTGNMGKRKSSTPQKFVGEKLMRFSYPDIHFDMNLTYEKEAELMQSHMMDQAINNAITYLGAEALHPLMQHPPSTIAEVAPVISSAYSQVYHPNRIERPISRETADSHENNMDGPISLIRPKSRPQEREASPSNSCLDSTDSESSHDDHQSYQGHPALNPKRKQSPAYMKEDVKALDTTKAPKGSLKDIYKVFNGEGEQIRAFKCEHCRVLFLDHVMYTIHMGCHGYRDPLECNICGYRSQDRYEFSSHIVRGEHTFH
T4 sequence (Q96SW2 whole entry): as the sequence (Q96SW2 whole entry) above
T4 sequence (Q16531 whole entry partner): as the sequence (Q16531 whole entry partner) above
How it was run: as §1

WEE1 = molecular target: T5, WEE1 (Homo sapiens, UniProt P30291+Q96SW2); experiment: Western blot degradation of WEE1 (hPBMC); settings: Table D16
T5 construct: evaluate the effects of the compounds of the present disclosure on the expression of target proteins in cells; endogenous in cells; host or cells: hPBMC
T5 sequence (P30291 whole entry): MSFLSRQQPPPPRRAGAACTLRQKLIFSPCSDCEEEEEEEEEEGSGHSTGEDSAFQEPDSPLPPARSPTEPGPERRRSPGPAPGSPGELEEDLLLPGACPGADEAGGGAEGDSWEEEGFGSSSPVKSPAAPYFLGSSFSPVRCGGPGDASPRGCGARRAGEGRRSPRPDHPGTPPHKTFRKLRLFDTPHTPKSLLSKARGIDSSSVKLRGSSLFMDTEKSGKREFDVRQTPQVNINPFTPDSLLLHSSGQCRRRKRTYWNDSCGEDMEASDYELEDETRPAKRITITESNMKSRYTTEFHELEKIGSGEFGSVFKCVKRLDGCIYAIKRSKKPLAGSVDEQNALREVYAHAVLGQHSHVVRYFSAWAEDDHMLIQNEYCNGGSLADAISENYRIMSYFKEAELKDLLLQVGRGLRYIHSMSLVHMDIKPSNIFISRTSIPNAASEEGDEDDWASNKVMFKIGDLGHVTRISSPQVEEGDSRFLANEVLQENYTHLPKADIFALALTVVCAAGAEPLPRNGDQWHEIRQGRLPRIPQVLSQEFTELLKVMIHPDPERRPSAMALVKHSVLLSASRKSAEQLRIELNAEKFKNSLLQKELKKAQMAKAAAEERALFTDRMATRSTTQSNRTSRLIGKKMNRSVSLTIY
T5 sequence (Q96SW2 whole entry): as the sequence (Q96SW2 whole entry) above
T5 sequence (Q16531 whole entry partner): as the sequence (Q16531 whole entry partner) above
How it was run: as §1

GSPT1 = molecular target: T6, GSPT1 (Homo sapiens, UniProt P15170+Q96SW2); experiment: Western blot degradation of GSPT1 (hPBMC); settings: Table D16
T6 construct: evaluate the effects of the compounds of the present disclosure on the expression of target proteins in cells; endogenous in cells; host or cells: hPBMC
How it was run: as §1

MCF7 = experiment: CCK-8 proliferation, MCF7 (MCF-7); settings: Homo sapiens
How it was run: as §2

[1] = MCF7, CCK-8, read-out: Inhibitory activity (IC50) on tumor cell proliferation, MCF-7

Structure (SMILES)	Degradation of substrate protein IKZF1 (substrate protein remaining %) (IKZF1)	Degradation of substrate protein CKla (substrate protein remaining %) (CK1a)	IC50 (MM.1S) [nM]	Degradation of substrate protein IKZF3 (substrate protein remaining %) (IKZF3)	Degradation of substrate protein IKZF2 (substrate protein remaining %) (IKZF2)	Degradation of substrate protein WEE1 (substrate protein remaining %) (WEE1)	Degradation of substrate protein GSPT1 (substrate protein remaining %) (GSPT1)	IC50 (MCF7; [1]) [nM]	IC50 (MCF7; MCF7, read-out: Inhibitory activity (IC50) on tumor cell proliferation, MCF-7) [nM]
NCc1ccnc(N2CCC(=O)NC2=O)c1 [GT-07198, 1-(4-(Aminomethyl)pyridin-2-yl)dihydropyrimidine-2,4(1H,3H)-dione]	B (B is defined as substrate protein remaining % > 80%)	B (B is defined as substrate protein remaining % > 80%)	1000 to 5000	A (A is defined as 0% ≤ substrate protein remaining % ≤ 80%)	B (B is defined as substrate protein remaining % > 80%)	B (B is defined as substrate protein remaining % > 80%)	B (B is defined as substrate protein remaining % > 80%)	–	–
O=Cc1cnc(NC2CCC(=O)NC2=O)nc1 (centres unmarked) [GT-07367, 2-((2,6-Dioxopiperidin-3-yl)amino)pyrimidine-5-carbaldehyde]	B (B is defined as substrate protein remaining % > 80%)	A (A is defined as 0% ≤ substrate protein remaining % ≤ 80%)	1000 to 5000	B (B is defined as substrate protein remaining % > 80%)	B (B is defined as substrate protein remaining % > 80%)	B (B is defined as substrate protein remaining % > 80%)	A (A is defined as 0% ≤ substrate protein remaining % ≤ 80%)	–	–
NCc1cc(N2CCC(=O)NC2=O)ncc1F [GT-07369, 1-(4-(Aminomethyl)-5-fluoropyridin-2-yl)dihydropyrimidine-2,4(1H,3H)-dione]	B (B is defined as substrate protein remaining % > 80%)	A (A is defined as 0% ≤ substrate protein remaining % ≤ 80%)	1000 to 5000	B (B is defined as substrate protein remaining % > 80%)	B (B is defined as substrate protein remaining % > 80%)	B (B is defined as substrate protein remaining % > 80%)	A (A is defined as 0% ≤ substrate protein remaining % ≤ 80%)	–	–
O=C1CCC(Nc2ccc(CO)nc2)C(=O)N1 (centres unmarked) [GT-07446, 3-((6-(Hydroxymethyl)pyridin-3-yl)amino)piperidine-2,6-dione]	A (A is defined as 0% ≤ substrate protein remaining % ≤ 80%)	A (A is defined as 0% ≤ substrate protein remaining % ≤ 80%)	–	A (A is defined as 0% ≤ substrate protein remaining % ≤ 80%)	A (A is defined as 0% ≤ substrate protein remaining % ≤ 80%)	A (A is defined as 0% ≤ substrate protein remaining % ≤ 80%)	A (A is defined as 0% ≤ substrate protein remaining % ≤ 80%)	1000 to 5000	–
O=Cc1cccnc1NC1CCC(=O)NC1=O (centres unmarked) [GT-07447, 2-((2,6-Dioxopiperidin-3-yl)amino)nicotinaldehyde]	A (A is defined as 0% ≤ substrate protein remaining % ≤ 80%)	A (A is defined as 0% ≤ substrate protein remaining % ≤ 80%)	–	A (A is defined as 0% ≤ substrate protein remaining % ≤ 80%)	A (A is defined as 0% ≤ substrate protein remaining % ≤ 80%)	A (A is defined as 0% ≤ substrate protein remaining % ≤ 80%)	A (A is defined as 0% ≤ substrate protein remaining % ≤ 80%)	1000 to 5000	–
O=C1CCC(Nc2ccc(CO)cn2)C(=O)N1 (centres unmarked) [GT-07551, 3-((5-(Hydroxymethyl)pyridin-2-yl)amino)piperidine-2,6-dione]	B (B is defined as substrate protein remaining % > 80%)	B (B is defined as substrate protein remaining % > 80%)	–	B (B is defined as substrate protein remaining % > 80%)	A (A is defined as 0% ≤ substrate protein remaining % ≤ 80%)	A (A is defined as 0% ≤ substrate protein remaining % ≤ 80%)	B (B is defined as substrate protein remaining % > 80%)	1000 to 5000	–
O=Cc1cncc(NC2CCC(=O)NC2=O)c1 (centres unmarked) [GT-07554, 5-((2,6-Dioxopiperidin-3-yl)amino)nicotinaldehyde]	A (A is defined as 0% ≤ substrate protein remaining % ≤ 80%)	A (A is defined as 0% ≤ substrate protein remaining % ≤ 80%)	–	A (A is defined as 0% ≤ substrate protein remaining % ≤ 80%)	A (A is defined as 0% ≤ substrate protein remaining % ≤ 80%)	A (A is defined as 0% ≤ substrate protein remaining % ≤ 80%)	B (B is defined as substrate protein remaining % > 80%)	1000 to 5000	–
O=C1CCN(c2cnc(CO)c(F)c2)C(=O)N1 [GT-07555, 1-(5-Fluoro-6-(hydroxymethyl)pyridin-3-yl)dihydropyrimidine-2,4(1H,3H)-dione]	A (A is defined as 0% ≤ substrate protein remaining % ≤ 80%)	A (A is defined as 0% ≤ substrate protein remaining % ≤ 80%)	–	A (A is defined as 0% ≤ substrate protein remaining % ≤ 80%)	A (A is defined as 0% ≤ substrate protein remaining % ≤ 80%)	A (A is defined as 0% ≤ substrate protein remaining % ≤ 80%)	A (A is defined as 0% ≤ substrate protein remaining % ≤ 80%)	1000 to 5000	–
O=C1CCC(Nc2cc(CO)c(F)cn2)C(=O)N1 (centres unmarked) [GT-07725, 3-((5-fluoro-4-(hydroxymethyl)pyridin-2-yl)amino)piperidine-2,6-dione]	A (A is defined as 0% ≤ substrate protein remaining % ≤ 80%)	B (B is defined as substrate protein remaining % > 80%)	–	A (A is defined as 0% ≤ substrate protein remaining % ≤ 80%)	A (A is defined as 0% ≤ substrate protein remaining % ≤ 80%)	A (A is defined as 0% ≤ substrate protein remaining % ≤ 80%)	A (A is defined as 0% ≤ substrate protein remaining % ≤ 80%)	1000 to 5000	–
CC(C)(C)[Si](C)(C)OCc1ccc(NC2CCC(=O)NC2=O)nn1 (centres unmarked) [GT-07726, 3-((6-(((tert-Butyldimethylsilyl)oxy)methyl)pyridazin-3-yl)amino)piperidine-2,6-dione]	A (A is defined as 0% ≤ substrate protein remaining % ≤ 80%)	B (B is defined as substrate protein remaining % > 80%)	–	A (A is defined as 0% ≤ substrate protein remaining % ≤ 80%)	A (A is defined as 0% ≤ substrate protein remaining % ≤ 80%)	A (A is defined as 0% ≤ substrate protein remaining % ≤ 80%)	B (B is defined as substrate protein remaining % > 80%)	–	1000 to 5000
O=C1CCC(Nc2ncncc2CO)C(=O)N1 (centres unmarked) [GT-07727, 3-((5-(Hydroxymethyl)pyrimidin-4-yl)amino)piperidine-2,6-dione]	A (A is defined as 0% ≤ substrate protein remaining % ≤ 80%)	B (B is defined as substrate protein remaining % > 80%)	–	A (A is defined as 0% ≤ substrate protein remaining % ≤ 80%)	A (A is defined as 0% ≤ substrate protein remaining % ≤ 80%)	A (A is defined as 0% ≤ substrate protein remaining % ≤ 80%)	B (B is defined as substrate protein remaining % > 80%)	1000 to 5000	–
